From patent publication US9161944B2, “Method for preventing cancer metastasis” (INSERM (INSTITUT NATIONAL DE LA SANTE ET DE LA SANTE ET DE …, priority 2010, dated 2015)
Like-named read-outs stand apart in the source and are kept apart here.

Assays:
SK3/KCa2.3 channel = SK3/KCa2.3 channel (Homo sapiens, UniProt Q9UGI6); assay: Whole-cell patch clamp on HEK293 cells expressing SK3; assay type: cell-based; parameters: expressed in transfected cells; host or cells: HEK293, lentiviral transduction, clonal selection; conditions: for Conductance decreasing / Inhibition of I at 0 mV: HEK 293 LvSK3 cells; for Inhibition of I at 0 mV: 10 μM stated for JPH1701; for Effect on SK3 activity: less effect than JPH1701
Protocol: The percentages of inhibition represent the ratio (SK3 current amplitude and chord conductance (in the presence of 10 μM JPH1701)/SK3 current amplitude in control experiments). Black bars show current at 0 mV and grey bars indicate the chord conductance. […] Columns, mean, bars, SEM, (5 cells for racemic mix and 4 cells for + and − forms).
MDA-MB-435s and HEK293 cells were transduced with lentiviral vector at multiplicities of infection (MOI) of 1 to 3 in the presence of polybrene (4 μg/ml, Sigma).
Experiments were performed with cells seeded into 35-mm Petri dishes at 3000 cells per cm2. All experiments were performed using the conventional whole-cell recording configuration of the patch-clamp technique as previously described. PCa solution was 7 and 6.4 respectively for MDA-MB-435s and HEK293-SK3/KCa2.3 cells.
Briefly, experiments were conducted using Axopatch 200B patch-clamp amplifier (Axon Instrument) and data, digitized with 1322-A Digidata converter (Axon Instrument), were stored on a computer using Clampex of pClamp 9.2 software (Axon Instru-ment). The patch-clamp data was analyzed using both Clampfit 9.2 and Origin 7.0 software (Microcal Inc., Northampton, Mass., USA).
The pipette solution for the whole-cell recordings contained (in mM): K-glutamate 125, KCl 20, MgCl2 1, Mg-ATP 1, HEPES 10, and pH was adjusted to 7.2 with KOH and various concentrations of CaCl2 and EGTA were added to obtain calculated pCa=7 (0.37 mM CaCl2 and 10 mM EGTA) or pCa=6.4 (0.7 mM CaCl2 and 1 mM EGTA).
We next developed HEK cells expressing SK3/KCa2.3 channel in order to test directly analogues on SK3 activity measured using patch-clamp technique (FIG. 8). […] The JPH1701-induced inhibition of SK3 current was analysed at 0 mV and the entire time course of the experiment is depicted in FIG. 8A.
Current activity has been measured in HEK 293 LvSK3 and in MDA-MB-435s cells. The percentages represent the inhibition of current and of conductance by compounds on SK3 channel in HEK 293 cells.

MDA-MB-435s [1] = assay: Cytotoxicity / cell viability (MTT, tetrazolium salt reduction)
[2] = as above; conditions: human
PhosphoLipase C (PLC) = assay: PhosphoLipase C activity; assay type: biochemical; conditions: FIG. 11D
Protocol: (§1) FIG. 11: Effects of JPH1701 on PAF receptor, PLC and PKCs activities. FIG. 11A) Histogram showing the percentage of control specific binding of 3H-C16-PAF to recombinant PAF receptor obtained from membrane homogenates of CHO cells by 0.3 and 2 μM edelfosine and by 0.3 and 2 μM JPH1701. FIG. 11B) Histogram showing the percentage of control agonist response (% effect i.e: increase of intracellular calcium concentration) of 0.3 and 2 μM edelfosine and JPH1701 on PAF receptor normalized to the response induced by 100 nM C16-PAF. […] FIG. 11C-D) Dose responses curves showing the effect of JPH1701 on PKCs (FIG. 11C, PKCs are: alpha, Beta 1, Beta 2, Gamma, Delta, Epsilon, Zeta, Eta, Theta, Iota) and PhosphoLipase C (PLC) activities (FIG. 11D).

PAF receptor [3] = target: T1, PAF receptor (Homo sapiens, UniProt P25105); assay: PAF receptor agonist response (increase of intracellular calcium); assay type: cell-based; conditions: 0.3 and 2 μM, FIG. 11B
T1 sequence (P25105 whole entry): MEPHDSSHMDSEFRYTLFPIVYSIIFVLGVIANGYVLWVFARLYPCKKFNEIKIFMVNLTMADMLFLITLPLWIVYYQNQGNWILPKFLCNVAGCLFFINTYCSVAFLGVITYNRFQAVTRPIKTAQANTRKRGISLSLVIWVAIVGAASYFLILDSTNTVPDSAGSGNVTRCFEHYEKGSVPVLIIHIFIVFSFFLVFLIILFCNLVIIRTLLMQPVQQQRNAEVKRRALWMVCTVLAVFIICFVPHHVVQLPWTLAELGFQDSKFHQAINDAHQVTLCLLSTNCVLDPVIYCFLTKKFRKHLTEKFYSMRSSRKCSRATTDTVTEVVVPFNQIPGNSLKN
Protocol: as §1

PAF receptor [4] = target: T1, PAF receptor; assay: 3H-C16-PAF binding, membrane homogenates of CHO cells; parameters: expressed in transfected cells; host or cells: CHO cells (membrane homogenates); conditions: 0.3 and 2 μM, FIG. 11A
Protocol: as §1

MDA-MB-435s (SK3+) = assay: Cell migration / 2D motility assay (transwell inserts, wound healing); assay type: cell-based, human; conditions: for Effect on cell migration: summary of table 2
Source text: Alternatively, the cell migration inhibitory activity of a compound of formula (I) may be assessed by performing a Wound Healing assay that is disclosed in the examples herein and for which the one skilled in the art may also refer to the article of Rodriguez et al. (2005, Methods Biol Mol, Vol. 294: 23-29). The wound-healing assay is simple, inexpensive, and one of the earliest developed methods to study directional cell migration in vitro. This method mimics cell migration during wound healing in vivo. The basic steps involve creating a “wound” in a cell monolayer, capturing the images at the beginning and at regular intervals during cell migration to close the wound, and comparing the images to quantify the migration rate of the cells. It is particularly suitable for studies on the effects of cell-matrix and cell-cell interactions on cell migration. Cells are seeded in culture dishes and grown until confluence in DMEM supplemented with 10% foetal calf serum. The monolayer is then scratched with a sterile yellow pipette tip. Then, migration of cells to the cleared area is inspected under a microscope. Pictures are taken directly at the time of scratching and after 24 h, so as to determine the ability of the tested cells to migrate.
Wound healing assay: Cells were seeded in culture dishes and grown until confluence in DMEM supplemented with 10% foetal calf serum. The monolayer was scratched with a sterile yellow pipette tip. The migration of cells to the cleared area was inspected under a microscope. Pictures were taken directly at the time of scratching and after 24 h.
At least three independent experiments were each performed in triplicate.

MDA-MB-435s [5] = test system: MDA-MB-435s
[6] = Table 2, viability of MDA-MB-435s
[7] = Homo sapiens, MDA-MB-435S, Table 2, concentration 300 nM

In the case of `CCCCCCCCCCCCCCCCOCC(COP(=O)(O)OC1OC(COC(C)=O)C(OC2OC(COC(C)=O)C(OC(C)=O)C(OC(C)=O)C2OC(C)=O)C(OC(C)=O)C1OC(C)=O)OC.CCN(CC)CC` (mixture of isomers) [CHS31], the Conductance decreasing (SK3/KCa2.3 channel) is reported as 38.9 ± 5.5%, the “Inhibition of I at 0 mV” value (SK3/KCa2.3 channel) is reported as 42.5 ± 8.2% and the “Effect on SK3 activity” value (SK3/KCa2.3 channel) is reported as “reduced SK3 activity”.

In the case of `CCCCCCCCCCCCCCCCCCOCC(COP(=O)([O-])OCC[N+](C)(C)C)OC` (centres unmarked) [Edelfosine, reference compound], the IC50 (MDA-MB-435s [1]; Homo sapiens, MDA-MB-435S) is reported as roughly 5 µM, the Toxicity (MDA-MB-435s [1]; [6]) is reported as “Yes at 10 μM” and the IC50 at 24 h ([2]; MDA-MB-435s cells (metastatic cancer cell line)) is reported as less than 5 µM. The IC50 (PhosphoLipase C (PLC)) was 2.5 µM, the “PAF receptor agonist response” value (PAF receptor [3]) was “dose-dependently increase intracellular calcium” and the “Interaction with C16-PAF binding site of PAF receptor” value (PAF receptor [4]) was “able to interact”. For the same molecule, the inhibition at 0.01 µM (MDA-MB-435s (SK3+); Homo sapiens, MDA-MB-435S, Table 2, concentration 10 nM) was 60% and the inhibition at 0.3 µM (MDA-MB-435s (SK3+); [7]) was 80%.

For `CCCCCCCCCCCCCCCCOCC(O)CO` (centres unmarked) [GS 1361], the Toxicity (MDA-MB-435s [5]) was “No at 10 μM” and the “Migration (% of inhibition)” value (MDA-MB-435s (SK3+); Table 2, concentration 300 nM) was 40%.

For `CCCCCOCC(O)CO[C@@H]1O[C@H](COC(C)=O)[C@@H](OC(C)=O)[C@H](OC(C)=O)[C@H]1OC(C)=O` (some centres unmarked) [HCG450], the IC50 (MDA-MB-435s [1]; [6]) was roughly 30 µM and the Toxicity (MDA-MB-435s [5]) was “Yes at 10 μM”.

With `CCCCCOCC(O)CO[C@@H]1O[C@H](CO)[C@@H](O)[C@H](O)[C@H]1O` (some centres unmarked) [HCG451] the Toxicity (MDA-MB-435s [5]) was “No until 100 μM”, the “Migration (% of inhibition)” value (MDA-MB-435s (SK3+); Table 2, concentration 300 nM) was “No effect” and the “Effect on cell migration” value (MDA-MB-435s (SK3+)) was “ineffective in cell migration”.

With `CCCCCCCCCCCCCCCCOC[C@H](CO[C@@H]1O[C@H](COC(C)=O)[C@@H](O[C@@H]2O[C@H](COC(C)=O)[C@H](OC(C)=O)[C@H](OC(C)=O)[C@H]2OC(C)=O)[C@H](OC(C)=O)[C@H]1OC(C)=O)OC` [JPH1700] the Conductance decreasing (SK3/KCa2.3 channel) was 18.1 ± 2.3%, the “Inhibition of I at 0 mV” value (SK3/KCa2.3 channel) was 22.8 ± 2.1% and the “Effect on SK3 activity” value (SK3/KCa2.3 channel) was “reduced SK3 activity”.

For `CCCCCCCCCCCCCCCCOC[C@H](CO[C@@H]1O[C@H](CO[C@H]2O[C@H](COC(C)=O)[C@H](OC(C)=O)[C@H](OC(C)=O)[C@H]2OC(C)=O)[C@@H](OC(C)=O)[C@H](OC(C)=O)[C@H]1OC(C)=O)OC` [JPH1874], the Conductance decreasing (SK3/KCa2.3 channel) was 34.1 ± 6.8% and the “Inhibition of I at 0 mV” value (SK3/KCa2.3 channel) was 44.0 ± 5.5%.

In the case of `CCCCCCCCCCCCCCCCOC[C@H](CO[C@@H]1O[C@H](COC(C)=O)[C@@H](O[C@H]2O[C@H](COC(C)=O)[C@@H](OC(C)=O)[C@H](OC(C)=O)[C@H]2OC(C)=O)[C@H](OC(C)=O)[C@H]1OC(C)=O)OC` [JPH1880], the Conductance decreasing (SK3/KCa2.3 channel) is reported as 46.1 ± 6.1% and the “Inhibition of I at 0 mV” value (SK3/KCa2.3 channel) is reported as 44.7 ± 5.0%.

For `CCCCCCCCCCCCCCCCOCC(COP(=O)(O)OCC[N+](C)(C)C)OC` (centres unmarked) [JPH 1321], the IC50 at 24 h ([2]; MDA-MB-435s cells) was roughly 30 µM and the inhibition at 0.1 µM (MDA-MB-435s (SK3+); Homo sapiens, MDA-MB-435S, Table 1, concentration 100 nM, read-out: Cell Migration inhibition of MDA-MB-435s (SK3+), Inhibitory effect) was 50%.

In the case of `CCCCCCCCCCCCCCCCOCC(CO[C@@H]1O[C@H](COC(C)=O)[C@H](OC(C)=O)[C@H](OC(C)=O)[C@H]1OC(C)=O)OC` (some centres unmarked) [JPH 1519], the “Migration (% of inhibition)” value (MDA-MB-435s (SK3+); Table 2, concentration 100 nM) is reported as 20%.

With `CCCCCCCCCCCCCCCCOCC(CO[C@@H]1O[C@H](CO)[C@H](O)[C@H](O)[C@H]1O)OC` (some centres unmarked) [JPH 1524] the IC50 (MDA-MB-435s [1]; [6]) was roughly 10 µM, the Toxicity (MDA-MB-435s [5]) was “Yes at 10 μM” and the “Migration (% of inhibition)” value (MDA-MB-435s (SK3+); Table 2, concentration 300 nM) was 20%.

With `CCCCCCCCCCCCCCCCOCC(CO)OC` (centres unmarked) [JPH 1597] the IC50 (MDA-MB-435s [1]; [6]) was roughly 50 µM, the Toxicity (MDA-MB-435s [5]) was “No at 10 μM” and the “Migration (% of inhibition)” value (MDA-MB-435s (SK3+); Table 2, concentration 300 nM) was “No effect”. For the same molecule, the “Effect on cell migration” value (MDA-MB-435s (SK3+)) was “decrease its inhibitory effect on cell migration”.

For `CCCCCCCCCCCCCCCCCCOCC(CO[C@@H]1O[C@H](CO)[C@@H](O[C@@H]2O[C@H](CO)[C@H](O)[C@H](O)[C@H]2O)[C@H](O)[C@H]1O)OC` (some centres unmarked) [JPH 1731], the “Migration (% of inhibition)” value (MDA-MB-435s (SK3+); Table 2, concentration 100 nM) was 30%.

In the case of `CCCCCCCCCCCCCCCCOP(=O)([O-])OCC[N+](C)(C)C` [Miltefosine, reference compound], the IC50 (MDA-MB-435s [1]; Homo sapiens, MDA-MB-435S) is reported as roughly 10 µM, the inhibition at 0.3 µM (MDA-MB-435s (SK3+); [7]) is reported as 20% and the “Effect on cell migration” value (MDA-MB-435s (SK3+)) is reported as “ineffective on cell migration”.

With `CCCCCCCCCCCCCCCCOCC(COP(=O)([O-])OCC[N+](C)(C)C)OC(C)=O` (centres unmarked) [PAF, reference compound] the Toxicity (MDA-MB-435s [1]; [6]) was “No until 100 μM”, the “Migration (% of inhibition)” value (MDA-MB-435s (SK3+); Table 2, concentration 300 nM) was “No effect” and the “Effect on cell migration” value (MDA-MB-435s (SK3+)) was “no effect on cell migration”.

For `CCCCCCCCCCCCCCCCCCOP(=O)([O-])OCC[N+](C)(C)C` [SK55], the IC50 (MDA-MB-435s [1]; [6]) was roughly 20 µM and the “Effect on cell migration” value (MDA-MB-435s (SK3+)) was “ineffective on cell migration”.
